The text below walks through data of publication PMC8634379, “From the Design to the In Vivo Evaluation of Benzohomoadamantane-Derived Soluble Epoxide Hydrolase Inhibitors for the Treatment of Acute Pancreatitis” (Journal of Medicinal Chemistry, 2021).

The nature of data set [1]: Microsomal stability. The format is in vitro ADME, mice. The settings on record: after 60 min incubation, NADP, 37 °C. The method, then: The human, rat, and mice recombinant microsomes employed were purchased from Tebu–Xenotech. […] Samples (75 μL) were taken from each well at 0, 10, 20, 40, and 60 min and transferred to a plate containing 4 °C 75 μL of acetonitrile and 30 μL of 0.5% formic acid in water were added for improving the chromatographic conditions. The plate was centrifuged ([…], 30 min) and supernatants were taken and analyzed by an ultraperformance liquid chromatograph–tandem mass spectrometer (Xevo-TQD, Waters) by employing a BEH C18 column and an isocratic gradient of 0.1% formic acid in water: 0.1% formic acid acetonitrile (60:40). The metabolic stability of the compounds was calculated from the logarithm of the remaining compounds at each of the time points studied.

A short description of data set [2]: Caco-2 cell permeability. Type of data set: in vitro ADME. To be noted: human; for Papp A→B at 2 h, 10 µM / Papp B→A at 2 h, 10 µM: 37 °C; for efflux ratio at 2 h, 10 µM: ER = (Papp B→A)/(Papp A→B). As for the experimental part:
The Caco-2 cells were cultured to confluency, trypsinized, and seeded onto a 96-filter transwell insert (Corning) at a density of ∼10,000 cells/well in DMEM cell culture medium supplemented with 10% fetal bovine serum, 2 mM L-glutamine, and 1% penicillin/streptomycin. Confluent Caco-2 cells were subcultured at passages 58–62 and grown in a humidified atmosphere of 5% CO2 at 37 °C. […] The cell monolayers were used for transport studies 21 days post seeding. […] Stock solutions were made in dimethyl sulfoxide (DMSO) and further diluted in HBSS (final DMSO concentration 1%). Each compound and reference compounds (Colchicine, E3S) were all tested at a final concentration of 10 μM. For A → B directional transport, the donor working solution was added to the apical (A) compartment and the transport media as receiver working solution was added to the basolateral (B) compartment. For B → A directional transport, the donor working was added to the basolateral (B) compartment and transport media as receiver working solution was added to the apical (A) compartment. The cells were incubated at 37 °C for 2 h with gentle stirring.
At the end of the incubation, samples were taken from both donor and receiver compartments and transferred into 384-well plates and analyzed by ultraperformance liquid chromatography–tandem mass spectrometry (UPLC–MS/MS). The detection was performed using an ACQUITY UPLC/Xevo TQD System.

Data set [3] addresses T1, human LOX-5 (hLOX-5) (Homo sapiens, UniProt P09917).
T1 construct: purchased Cayman Chemical
T1 sequence (P09917 1-674): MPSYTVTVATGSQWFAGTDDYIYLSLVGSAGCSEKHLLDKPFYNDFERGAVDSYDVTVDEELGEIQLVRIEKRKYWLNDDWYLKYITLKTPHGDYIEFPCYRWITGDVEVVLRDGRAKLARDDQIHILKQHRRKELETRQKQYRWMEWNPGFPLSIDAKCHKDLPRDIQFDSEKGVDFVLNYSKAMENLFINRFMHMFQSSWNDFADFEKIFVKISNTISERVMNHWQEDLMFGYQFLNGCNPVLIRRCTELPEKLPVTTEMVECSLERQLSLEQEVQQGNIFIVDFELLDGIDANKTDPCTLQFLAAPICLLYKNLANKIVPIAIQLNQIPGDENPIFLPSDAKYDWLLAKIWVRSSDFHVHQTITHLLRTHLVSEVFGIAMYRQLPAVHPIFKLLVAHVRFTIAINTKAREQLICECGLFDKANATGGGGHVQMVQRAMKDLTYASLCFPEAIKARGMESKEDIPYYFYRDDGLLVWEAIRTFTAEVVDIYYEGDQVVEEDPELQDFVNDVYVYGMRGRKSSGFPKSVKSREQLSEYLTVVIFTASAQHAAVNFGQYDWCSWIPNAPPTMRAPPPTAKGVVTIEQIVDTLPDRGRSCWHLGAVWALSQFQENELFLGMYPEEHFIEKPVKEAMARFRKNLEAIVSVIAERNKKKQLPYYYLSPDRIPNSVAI
Briefly: Inhibition of hLOX-5. Type of data set: biochemical. The method, then:
AA and 2′,7′-dichlorodihydrofluorescein diacetate (H2DCFDA) were obtained from Sigma. Human recombinant LOX-5 was purchased from Cayman Chemical. For the determination of hLOX-5 activity, the method described by Pufahl et al. was followed.[51] The assay solution consisted of 50 mM Tris (pH 7.5), 2 mM EDTA, 2 mM CaCl2, 3 μM AA, 10 μM ATP, 10 μM H2DCFDA, and 100 mU/well hLOX-5. For the enzyme inhibition studies, the compounds to be tested were added to the assay solution prior to AA and ATP and were preincubated for a period of 10 min at room temperature, after which AA and ATP were added. The enzymatic reaction was carried out for 20 min and terminated by the addition of 40 μL of acetonitrile.

For data set [4], the target named is T2, human COX-2 (hCOX-2) (Homo sapiens, UniProt P35354).
T2 sequence (P35354 18-604): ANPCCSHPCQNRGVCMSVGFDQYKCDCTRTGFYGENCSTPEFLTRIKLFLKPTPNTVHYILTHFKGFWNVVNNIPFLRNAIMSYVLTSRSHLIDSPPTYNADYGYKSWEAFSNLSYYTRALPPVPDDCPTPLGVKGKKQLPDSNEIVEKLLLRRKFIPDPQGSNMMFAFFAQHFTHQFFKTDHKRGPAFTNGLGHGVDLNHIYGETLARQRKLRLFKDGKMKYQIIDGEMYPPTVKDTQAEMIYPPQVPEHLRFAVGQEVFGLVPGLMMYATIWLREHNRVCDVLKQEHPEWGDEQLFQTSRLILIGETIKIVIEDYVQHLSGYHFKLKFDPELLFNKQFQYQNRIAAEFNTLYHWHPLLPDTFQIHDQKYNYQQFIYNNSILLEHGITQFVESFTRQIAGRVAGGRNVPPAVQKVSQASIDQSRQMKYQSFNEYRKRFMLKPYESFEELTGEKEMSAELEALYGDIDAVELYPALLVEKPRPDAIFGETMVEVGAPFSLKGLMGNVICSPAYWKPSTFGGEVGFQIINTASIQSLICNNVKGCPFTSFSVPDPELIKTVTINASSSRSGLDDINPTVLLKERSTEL
As to the kind of experiment: Inhibition of hCOX-2 (Eurofins, catalogue reference 4186). To be noted: for IC50: performed by Eurofins. The format is biochemical.

As for `O=C(NC12CC3CC(Cl)(CC(C1)c1ccccc13)C2)N[C@H]1CC[C@H](Oc2ccc(C(=O)O)cc2)CC1` [Compound 22, 4-[((1r,4r)-4-(3-(9-Chloro-5,6,8,9,10,11-hexahydro-7H-5,9:7,11-dimethanobenzo[9]annulen-7-yl)ureido)cyclohexyl)oxy]benzoic Acid], the “microsomal stability, percentage of remaining compound (mice)” value in data set [1] stood at 29%. The Papp A→B at 2 h, 10 µM in data set [2] is 2.15 ×10⁻⁶ cm/s. The Papp B→A at 2 h, 10 µM in data set [2] was found to be 4.66 ×10⁻⁶ cm/s. Further, the results for the IC50 in data set [3] and in data set [4] were > 100 µM and > 10 µM, respectively.

As for `CC12CC3CC(NC(=O)N[C@H]4CC[C@H](Oc5ccc(C(=O)O)cc5)CC4)(CC(C1)c1ccccc13)C2` [Compound 20, 4-[((1r,4r)-4-(3-(9-Methyl-5,6,8,9,10,11-Hexahydro-7H-5,9:7,11-dimethanobenzo[9]annulen-7-yl)ureido)cyclohexyl)oxy]benzoic Acid], the “microsomal stability, percentage of remaining compound (mice)” value in data set [1] amounted to 10%. For the same compound, in data set [2], the Papp A→B at 2 h, 10 µM turned out to be 1 ×10⁻⁶ cm/s; the Papp B→A at 2 h, 10 µM turned out to be 12.4 ×10⁻⁶ cm/s; the efflux ratio at 2 h, 10 µM amounted to 12.4. Further, in data set [3], the IC50 is > 100 µM; the “inhibition of hLOX-5 (selectivity)” value is “Neither 20 nor the halogenated analogues 22 and 23 significantly inhibited”. In data set [4], the “inhibition of hCOX-2 (selectivity)” value was “Neither 20 nor the halogenated analogues 22 and 23 significantly inhibited”; the IC50 is > 10 µM.

In the case of `O=C(NC12CC3CC(F)(CC(C1)c1ccccc13)C2)N[C@H]1CC[C@H](Oc2ccc(C(=O)O)cc2)CC1` [Compound 23, 4-[((1r,4r)-4-(3-(9-Fluoro-5,6,8,9,10,11-hexahydro-7H-5,9:7,11-dimethanobenzo[9]annulen-7-yl)ureido)cyclohexyl)oxy]benzoic Acid], in data set [1], the “microsomal stability, percentage of remaining compound (mice)” value is listed as 36%. Moreover, in data set [2], the Papp A→B at 2 h, 10 µM came to 0.09 ×10⁻⁶ cm/s; the Papp B→A at 2 h, 10 µM was 21.9 ×10⁻⁶ cm/s; the efflux ratio at 2 h, 10 µM came out at 244. Also, in data set [3], the IC50 was > 100 µM; the “inhibition of hLOX-5 (selectivity)” value was “Neither 20 nor the halogenated analogues 22 and 23 significantly inhibited”. In addition, in data set [4], the “inhibition of hCOX-2 (selectivity)” value is “Neither 20 nor the halogenated analogues 22 and 23 significantly inhibited”; the IC50 is > 10 µM.
